In one assay the target is MAGE-A11:PCF11 (Homo sapiens (Human), UniProt P43364). Briefly: TR-FRET single point screening at 15 μM. Type of assay: binding. Further details: unit not given here. As to conditions: single point TR-FRET screening at 15 μM against MAGE-A11:PCF11. An outline of the steps: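 Competition TR-FRET: compounds at final 15 μM mixed with 200 nM FAM-PCF11_4, 5 nM GST-MAGEA11 and 5 nM Tb-anti-GST in Tris pH 7.5/MgCl2/BSA/DTT buffer, room temperature, 90 min. Emission ratio 520/490 nm (340 nm excitation) expressed as % inhibition relative to positive and negative controls.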
Sequence of MAGE-A11:PCF11 (P43364 218-429): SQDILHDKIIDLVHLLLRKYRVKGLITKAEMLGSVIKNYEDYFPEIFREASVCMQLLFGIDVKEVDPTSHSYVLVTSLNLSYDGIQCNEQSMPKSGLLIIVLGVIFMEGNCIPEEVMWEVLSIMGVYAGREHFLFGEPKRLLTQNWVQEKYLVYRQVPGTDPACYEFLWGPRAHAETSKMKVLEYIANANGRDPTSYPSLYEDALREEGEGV
As for `COc1cccc(CN2CCC(Nc3ccnc4cc(Cl)ccc34)CC2)c1` [SJ000523107], the TR-FRET signal is 3.149.
`C#CCOCC(O)CN1CCN(c2cc(C(F)(F)F)nc3ccccc23)CC1` (stereo not shown) [SJ000228018] gave a TR-FRET signal of −9.516.
The same measure, in the same setting: the result for `CCc1ccc2ncc(S(=O)(=O)c3ccc(C)c(C)c3)c(N3CCN(CC)CC3)c2c1` [SJ000247334] reads −4.712.
For the compound `COc1ccc2nc3cc(Cl)ccc3c(NCCCNCc3cc(Br)cs3)c2c1` [SJ000520996], the TR-FRET signal is on record as −287.6.
Turning to `COc1ccc(CN(CCCCNc2ccnc3cc(Cl)ccc23)Cc2ccccc2)cc1F` [SJ000520438], the TR-FRET signal amounted to 13.15.
For `CCc1ccc(S(=O)(=O)c2cnc3ccccc3c2N2CCN(c3ccc(OC)cc3)CC2)cc1` [SJ000117074], the TR-FRET signal is listed as −11.2.
In turn, `CCC(C)CN(CCCCNc1ccnc2cc(Cl)ccc12)Cc1ccccc1` (stereo not shown) [SJ000361208] registered a TR-FRET signal of 35.37.
Compound `COc1ccc(F)cc1CN(CCCCNc1ccnc2cc(Cl)ccc12)Cc1ccccc1` [SJ000357496] gave a TR-FRET signal of 20.78.
Compound `O=S(=O)(c1ccc(F)cc1)c1cnc2ccc(Cl)cc2c1N1CCN(c2ccc(F)cc2)CC1` [SJ000117063] returned a TR-FRET signal of −4.205.
`CCCN(CCCNc1c2ccc(Cl)cc2nc2ccc(OC)cc12)CCCc1ccccc1` [SJ000520958] came in with a TR-FRET signal of −267.2.
As for `Fc1cccc(C(F)(F)F)c1CN(CCCCNc1ccnc2cc(Cl)ccc12)Cc1ccccc1` [SJ000520465], the TR-FRET signal came out at 28.75.
As to `CCN1CCN(c2c(C(=O)c3ccccc3)cnc3ccc(OC)cc23)CC1` [SJ000247365], the TR-FRET signal is −0.2733.
Take `CCN1CCN(c2c(S(=O)(=O)c3ccccc3)cnc3ccc(Cl)cc23)CC1` [SJ000083960]: the TR-FRET signal came out at 4.43.
The compound `CCCN(CCCNc1c2ccc(Cl)cc2nc2ccc(OC)cc12)Cc1ccc(Br)o1` [SJ000520929] registered a TR-FRET signal of −137.3.
On to `Clc1ccc2c(NC3CCN(Cc4cccc5ccccc45)CC3)ccnc2c1` [SJ000523099], for which the TR-FRET signal is −6.179.
`COc1ccc(CN(CCCCNc2ccnc3cc(Cl)ccc23)Cc2ccccc2)cc1OC` [SJ000522728]: the TR-FRET signal was 0.05797.
For the compound `CCOC(=O)c1cnc2ccc(C(=O)OC)cc2c1NCCN1CCOCC1` [SJ000127079], the TR-FRET signal was −7.813.
On the same count and under the same terms, for `Clc1ccc2c(NC3CCN(CC4CCCCC4)CC3)ccnc2c1` [SJ000523085] the value was 15.43; for `COc1ccc(N2CCN(c3c(S(=O)(=O)c4ccc(C)cc4)cnc4ccc(Cl)cc34)CC2)cc1` [SJ000117072], −5.838; for `COc1ccc2nc3cc(Cl)ccc3c(NCCCNCCC(C)SC)c2c1` (stereo not shown) [SJ000361098], −514.5.
`CCCCN(CCCC)CC(=O)Nc1c2c(nc3ccccc13)N(C)CC2` [SJ000331523] showed a TR-FRET signal of 2.503.
For `COc1ccc2nc3cc(Cl)ccc3c(NCCCNCCC(C)c3ccccc3)c2c1` (stereo not shown) [SJ000523027], the TR-FRET signal is listed as −340.3.
In turn, `Cc1ccc2ncc(S(=O)(=O)c3ccccc3)c(N3CCN(C)CC3)c2c1` [SJ000083945] gave a TR-FRET signal of −8.419.
Regarding `Fc1ccccc1CN1CCC(Nc2ccnc3cc(Cl)ccc23)CC1` [SJ000523091], the TR-FRET signal is −0.9977.
On the same count and under the same terms, the result for `COc1cc2ncc(S(=O)(=O)c3ccc(Cl)cc3)c(N3CCN(C)CC3)c2cc1OC` [SJ000083953] reads 4.674; that for `O=S(=O)(c1ccc(Cl)cc1)c1cnc2ccc(F)cc2c1N1CCN(c2ccccc2)CC1` [SJ000117055], 2.112.
The compound `Clc1ccc2c(NCCCCN(Cc3ccccc3)Cc3cccnc3Br)ccnc2c1` [SJ000520453] came in with a TR-FRET signal of 2.377.
The same measure, in the same setting: the result for `Clc1ccc2c(NC3CCN(Cc4ccccc4)CC3)ccnc2c1` [SJ000357524] reads 6.554; that for `COc1ccc2nc3cc(Cl)ccc3c(NCCCNCc3cc(F)ccc3F)c2c1` [SJ000361091], −327.2.
`Clc1ccc2c(NCCCCN(Cc3ccccc3)CC3CC3)ccnc2c1` [SJ000357485] gave a TR-FRET signal of 18.34.
The same measure, in the same setting: the result for `CN(C)c1cc(NC(=O)CN2CCOCC2)c2ccccc2n1` [SJ000111677] reads 4.988.
`CCCN(CCCNc1c2ccc(Cl)cc2nc2ccc(OC)cc12)CCC(C)(C)C` [SJ000522983]: the TR-FRET signal is given as −233.7.
`CCCN(CCCNc1c2ccc(Cl)cc2nc2ccc(OC)cc12)Cc1ccccn1` [SJ000520919] came in with a TR-FRET signal of −146.2.

Staying with this assay, now noted: single point TR-FRET screening of quinoline compounds against MAGE-A11:PCF11; 15 μM.
Compound `Cc1ccc(F)cc1CN(CCCNc1ccnc2cc(Cl)ccc12)Cc1ccccc1` [SJ000520458] displayed a TR-FRET signal of 29.77.
`CCCN(CCCNc1ccnc2cc(C(F)(F)F)ccc12)Cc1cc(OC)ccc1F` [SJ000520480] gave a TR-FRET signal of 11.96.
Consider `CCCN(CCCNc1c2ccc(Cl)cc2nc2ccc(OC)cc12)Cc1ccccc1O` [SJ000520926], for which the TR-FRET signal is −91.84.
The compound `CCCN(CCCNc1ccnc2cc(Cl)ccc12)Cc1ccccc1OC(F)(F)F` [SJ000357595] gave a TR-FRET signal of −21.87.
As for `Cn1cc(CNCCCNc2ccnc3cc(C(F)(F)F)ccc23)c2ccccc21` [SJ000521043], the TR-FRET signal is 29.11.
The compound `CCCNCCCNc1ccnc2cc(Cl)ccc12` [SJ000361119] had a TR-FRET signal of 9.785.
Turning to `Cc1c(CNCCCNc2ccnc3cc(Cl)ccc23)c(=O)n(-c2ccccc2)n1C` [SJ000523058], the TR-FRET signal is given as 5.584.
`CCCN(CCCNc1ccnc2cc(C(F)(F)F)ccc12)Cc1c[nH]c2ccccc12` [SJ000520468]: the TR-FRET signal is recorded as 16.16.
With `CCCN(CCCNc1ccnc2cc(Cl)ccc12)Cc1ccccc1N` [SJ000522747], the TR-FRET signal came to 15.43.
Compound `CCC(C)CNCCCNc1ccnc2cc(C(F)(F)F)ccc12` (stereo not shown) [SJ000361112] registered a TR-FRET signal of 18.47.
Same read-out and setting: the result for `CCCN(CCCNc1ccnc2cc(C(F)(F)F)ccc12)CCCc1ccccc1` [SJ000523080] reads 28; that for `NC(=O)CC(Nc1c2ccccc2nc2ccccc12)C(=O)O` (stereo not shown) [SJ000044383], 20.1.
As for `Clc1ccc2c(NCCCN(Cc3ccccc3)Cc3ccc4ccccc4c3)ccnc2c1` [SJ000361182], the TR-FRET signal was 22.05.
`FC(F)(F)Oc1ccccc1CN(CCCNc1ccnc2cc(Cl)ccc12)Cc1ccccc1` [SJ000357599] had a TR-FRET signal of 19.76.
In the case of `c1ccc(Cc2ccc3c(NCCCNCc4ccco4)ccnc3c2)cc1` [SJ000311306], the TR-FRET signal is 64.54.
On the same count and under the same terms, the result for `CCCN(CCCNc1ccnc2cc(Cl)ccc12)Cc1c[nH]c2ccc(F)cc12` [SJ000522992] reads 29.34.
As to `CCCN(CCCNc1ccnc2cc(C(F)(F)F)ccc12)Cc1ccc(OC)cc1` [SJ000361273], the TR-FRET signal is 22.9.
Still for that read-out and setting: for `CCCN(CCCNc1ccnc2cc(Cl)ccc12)Cc1c(Cl)ccc(Cl)c1Cl` [SJ000523046] the value was 17.75; for `CCCN(CCCNc1c2ccc(Cl)cc2nc2ccc(OC)cc12)Cc1cccnc1` [SJ000575152], −23.4.
Consider `FC(F)(F)c1ccc2c(NCCCNCC3CCOC3)ccnc2c1` (stereo not shown) [SJ000521065], for which the TR-FRET signal worked out at 15.56.
In turn, `CCCN(CCCNc1ccnc2cc(C(F)(F)F)ccc12)Cc1ccc[nH]1` [SJ000361255] had a TR-FRET signal of 30.66.
Compound `C#Cc1ccccc1CN(CCC)CCCNc1ccnc2cc(Cl)ccc12` [SJ000523000] showed a TR-FRET signal of 12.45.
`CCCN(CCCNc1ccnc2cc(Cl)ccc12)Cc1cccnc1` [SJ000357446] registered a TR-FRET signal of 7.809.
For `CCCN(CCCNc1ccnc2cc(C(F)(F)F)ccc12)CC1CC1` [SJ000361266], the TR-FRET signal was 48.15.
For the compound `CSC(C)CCNCCCNc1ccnc2cc(Cl)ccc12` (stereo not shown) [SJ000361121], the TR-FRET signal is recorded as 13.5.
`Clc1ccc2c(NCCCNCc3cc4ccccc4s3)ccnc2c1` [SJ000521032] yielded a TR-FRET signal of 30.13.
`CCCN(CCCNc1ccnc2cc(Cl)ccc12)Cc1ccccc1C(F)(F)F` [SJ000522745] showed a TR-FRET signal of −38.03.
The same measure, in the same setting: for `Fc1ccc(CN(CCCNc2ccnc3cc(Cl)ccc23)Cc2ccccc2)cc1` [SJ000522721] the value was 18.08.
In the case of `Clc1cccc(Cl)c1Cc1ccc2c(NCCCNCc3ccco3)ccnc2c1` [SJ000311314], the TR-FRET signal is on record as 32.4.
Still for that read-out and setting: the result for `Fc1ccc(Cc2ccc3c(NCCCNCc4ccco4)ccnc3c2)c(Cl)c1` [SJ000311322] reads 24.77; that for `Clc1ccc2c(NCCCNCc3ccoc3)ccnc2c1` [SJ000520913], −11.15.
For `CCCN(CCCNc1ccnc2cc(Cl)ccc12)Cc1cccc(C#N)c1` [SJ000522763], the TR-FRET signal stood at 12.91.
`CCCN(CCCNc1ccnc2cc(Cl)ccc12)Cc1cc(F)ccc1OC` [SJ000357494] showed a TR-FRET signal of 17.08.
On to `CCCN(CCCNc1ccnc2cc(Cl)ccc12)Cc1ccc(OC)cc1` [SJ000522756], for which the TR-FRET signal was 19.14.
The same measure, in the same setting: the result for `CCCN(CCCCCC(=O)OC)CCCNc1ccnc2cc(Cl)ccc12` [SJ000523017] reads 14.3; that for `CCCN(CCCNc1ccnc2cc(C(F)(F)F)ccc12)Cc1c(C)cc(C)cc1C` [SJ000361264], 19.93; that for `Fc1cccc(CN(CCCNc2ccnc3cc(Cl)ccc23)Cc2ccccc2)c1` [SJ000361176], 20.36.
With `CCCN(CCCNc1ccnc2cc(Cl)ccc12)CCc1ccccc1` [SJ000357574], the TR-FRET signal is recorded as 4.884.
Take `CCc1ccc(CN(CCCNc2ccnc3cc(Cl)ccc23)Cc2ccccc2)cc1` [SJ000520442]: the TR-FRET signal amounted to 18.89.
Regarding `Cc1csc(CN(CCCNc2ccnc3cc(Cl)ccc23)Cc2ccccc2)n1` [SJ000520463], the TR-FRET signal is −10.47.

The values above are taken from patent US20240246941A1, “SUBSTITUTED 4-(3-AMINOPROP-1-YL)AMINOQUINOLINE ANALOGS AS MODULATORS OF MELANOMA-ASSOCIATED ANTIGEN 11 UBIQUITIN LIGASE” (ST. JUDE CHILDREN'S RESEARCH HOSPITAL, INC., priority 2020, published 2024).
